According to the OligoGym collection:
“And” between values parts separate entries of the source, which are not always exact repeats. Equal values may be shown once. After the bases stand the sugars from the 5' end (letter, count) and the backbone: PS all phosphorothioate, else s phosphorothioate and o phosphodiester by linkage. Methylation of C is not given here. e = 2'-O-(2-methoxyethyl) (MOE); k = constrained ethyl (cEt); d = 2'-deoxy (DNA)

Target: IRF4
Settings: ASO

| Sequence | target mRNA inhibition (MM.1R, 1 µM) | target mRNA inhibition (SK-MEL-28, 4 µM) | also measured |
| --- | --- | --- | --- |
| GCACATCAATGTTTTA (sugars kdddddddddkekeke, PS) | 17% and 15% | – | – |
| AACAAAAGGTTCCCGC (sugars k3 d10 k3, PS) | – | 40% | – |
| ACGTGTGCTTGCCAAG (sugars kkdddddddddkekek, PS) | 49% and 44% | – | – |
| ACAGTGACTTGCATCC (sugars kkddddddddddkeke, PS) | 30% | – | – |
| CCCCATTGCCTGTTAA (sugars k3 d10 k3, PS) | – | 20% | – |
| GGCCTGAAGCTTAGTT (sugars k3 d10 k3, PS) | -5% and 6% | – | – |
| CTTGATAAAGGCTGAA (sugars kddddddddddkekek, PS) | 17% | – | – |
| CTCTATAGTGTTCCAG (sugars e1 k2 d9 k2 e2, PS) | 59% | – | target mRNA inhibition (MM.1R, 0.074 µM): 20%; target mRNA inhibition (MM.1R, 0.222 µM): 37%; target mRNA inhibition (MM.1R, 0.666 µM): 53%; target mRNA inhibition (MM.1R, 2 µM): 75% |
| TCAGTTTGTGAAGCAT (sugars kkkddddddddkekek, PS) | 41% | – | – |
| TCCCCGTATCAAAAAA (sugars k3 d10 k3, PS) | – | -12% | – |
| CATAGCATTATCTACC (sugars k3 d10 k3, PS) | – | 43% | – |
| ATGTTGCATAGGCATC (sugars k3 d10 k3, PS) | 10% | – | – |
| ATCAAGTAAAGTGATC (sugars k3 d10 k3, PS) | – | 29% | – |
| TTGCTAGATTCTCCCT (sugars k3 d10 k3, PS) | 16% | – | – |
| GACTACACCTACACAG (sugars k3 d10 k3, PS) | – | 32% | – |
| AAGTGTCTAAAGTCCC (sugars kkdddddddddkdkdk, PS) | 13% and 21% | – | – |
| TTGTGAAGCATCCTTT (sugars k3 d10 k3, PS) | – | 63% | – |
| CTGCAGTTCACGAAAC (sugars k3 d10 k3, PS) | – | 38% | – |
| GCAGTGATGTCAGGTT (sugars kkdddddddddkekek, PS) | 69% | – | target mRNA inhibition (MM.1R, 0.074 µM): 14%; target mRNA inhibition (MM.1R, 0.222 µM): 37%; target mRNA inhibition (MM.1R, 0.666 µM): 60%; target mRNA inhibition (MM.1R, 2 µM): 81% |
| GCACAGTCTTTTCGCA (sugars k3 d10 k3, PS) | – | 20% | – |
| AACCAGCCCTTGCTGC (sugars k3 d10 k3, PS) | – | 21% | – |
| TCCCTAGGTCATACCC (sugars k3 d10 k3, PS) | – | 58% | – |
| AACCGCTGAACTGAAA (sugars k3 d10 k3, PS) | – | 13% | – |
| AGTTCATGTAAAGTCT (sugars kddddddddddkekek, PS) | 25% and 22% | – | – |
| TGTGATAGCTGAGCTG (sugars kdddddddddkekeke, PS) | 18% | – | – |

| Sequence | target mRNA inhibition (MM.1R, 1 µM) | target mRNA inhibition (SK-MEL-28, 4 µM) | also measured |
| --- | --- | --- | --- |
| AAGGAACAAGTGTATC (sugars k3 d10 k3, PS) | 13% | – | – |
| CTCCACGCGCGGAGGA (sugars k3 d10 k3, PS) | – | -1% | – |
| TAGACTGACAGCCGAA (sugars k3 d10 k3, PS) | 3% | – | – |
| ACAAAAACTTGGGTCA (sugars k3 d10 k3, PS) | -13% | – | – |
| TTACGAGAGGGTCTGA (sugars k3 d10 k3, PS) | – | 51% | – |
| GTAAAACATAACTTAC (sugars k3 d10 k3, PS) | – | 8% | – |
| ATTATATACTGGTTGG (sugars kkdddddddddekeke, PS) | 43% | – | – |
| AGCTTGATAAAGGCTG (sugars kkdddddddddkekek, PS) | 16% | – | – |
| CTGAAGACAATGTTGT (sugars k3 d10 k3, PS) | – | 55% | – |
| CGACAGCTAAAGAACA (sugars k3 d10 k3, PS) | – | 37% | – |
| TTACTTAGACATTACT (sugars k3 d10 k3, PS) | – | 48% | – |
| CCGCCCGCTCTGCTCT (sugars k3 d10 k3, PS) | – | 54% | – |
| TCTGAATTGTTACTAA (sugars k3 d10 k3, PS) | – | 35% | – |
| ACTGCTGTGTGTCAAA (sugars k4 d8 k4, PS) | – | 19% | – |
| GAGCACCAGCCATCGG (sugars k3 d10 k3, PS) | – | 23% | – |
| GCGGACGCACGGAGAG (sugars k3 d10 k3, PS) | -9% | – | – |
| ACACTTTTAGAGAGGA (sugars k2 d9 e3 k2, PS) | 21% | – | – |
| AGTTGTCTGGCTAGCA (sugars k3 d10 k3, PS) | – | 80% | – |
| AGCATATTCCAACAGG (sugars k3 d10 k3, PS) | 18% | 69% | target mRNA inhibition (MM.1R, 0.0625 µM): -1%; target mRNA inhibition (MM.1R, 0.074 µM): -8%; target mRNA inhibition (MM.1R, 0.222 µM): -6%; target mRNA inhibition (MM.1R, 0.25 µM): 6%; target mRNA inhibition (MM.1R, 0.666 µM): 19%; target mRNA inhibition (MM.1R, 2 µM): 32%; target mRNA inhibition (MM.1R, 4 µM): 58% |
| TTATGTTAGCCAATTC (sugars kkdddddddddkekek, PS) | 11% and 19% | – | – |
| AAAGGGTAAGCACTGA (sugars k3 d10 k3, PS) | 19% | – | – |
| ATTACTGCTTGAGGTT (sugars k3 d10 k3, PS) | – | 62% | – |
| TGCTAGGATTCCTAAC (sugars k3 d10 k3, PS) | – | 26% | – |
| TACTGTTACCGATGCT (sugars kkddddddddddkeke, PS) | 24% and 17% | – | – |
| CATCACCGAACACACC (sugars k3 d10 k3, PS) | – | 24% | – |

| Sequence | target mRNA inhibition (MM.1R, 1 µM) | target mRNA inhibition (SK-MEL-28, 4 µM) | also measured |
| --- | --- | --- | --- |
| ATAGTGCAATGAAATG (sugars k3 d10 k3, PS) | – | 36% | – |
| CACGAGGTTGCCGAGA (sugars k3 d10 k3, PS) | 48% | 64% | target mRNA inhibition (MM.1R, 0.0625 µM): -3%; target mRNA inhibition (MM.1R, 0.074 µM): 4%; target mRNA inhibition (MM.1R, 0.222 µM): 7%; target mRNA inhibition (MM.1R, 0.25 µM): 9%; target mRNA inhibition (MM.1R, 0.666 µM): 22%; target mRNA inhibition (MM.1R, 2 µM): 34%; target mRNA inhibition (MM.1R, 4 µM): 62% |
| CTGGTAACTGTATGGA (sugars k3 d10 k3, PS) | 17% | – | – |
| CTGGTTCGCGCTCCGG (sugars k3 d10 k3, PS) | – | 7% | – |
| TAAAAGGTTCCTGTCA (sugars k3 d10 k3, PS) | – | 6% | – |
| ACTTACAGGACTATTT (sugars k3 d10 k3, PS) | – | 16% | – |
| CCACTGTTAAAGCAGC (sugars k3 d10 k3, PS) | – | 66% | – |
| CCCCTCTCCAGGTGGC (sugars k3 d10 k3, PS) | – | 13% | – |
| CGCACTAAGTGGGCTC (sugars k3 d10 k3, PS) | – | 14% | – |
| TCAAAGTCATTGCTCT (sugars k3 d10 k3, PS) | – | 21% | – |
| TGCTGATGTGTTCTGG (sugars k3 d10 k3, PS) | – | 67% and 58% | – |
| CTGAGAGTAAACTTGG (sugars k3 d10 k3, PS) | -1% | – | – |
| CAATAAAATGTCACGC (sugars k3 d10 k3, PS) | – | 47% | – |
| GGAAGTTTACACTGGA (sugars kkdddddddddkdkdk, PS) | 24% | – | – |
| ATTTATACTGTCTGGT (sugars k3 d10 k3, PS) | – | 49% | – |
| CTATAGTGTTCCAGGA (sugars kkkdddddddddkeke, PS) | 22% | – | – |
| AGGAATGAGCACTCTT (sugars k3 d10 k3, PS) | 7% | – | – |
| AAGCAGTGATGTCAGG (sugars k2 d9 e3 k2, PS) | 62% and 51% | – | – |
| CACTATGCCTGAACTG (sugars k3 d10 k3, PS) | – | 10% | – |
| CTTTAACAAGTCCTCA (sugars k3 d10 k3, PS) | – | 52% | – |
| GTGCAAAACCAGTACA (sugars k3 d10 k3, PS) | – | 33% | – |
| CAAAGCAAGTGTCTAA (sugars k3 d10 k3, PS) | – | 23% | – |
| CCGCTCAACCAGTTCC (sugars k3 d10 k3, PS) | -12% | – | – |
| AGAAAACTCTAACCCT (sugars k3 d10 k3, PS) | – | 25% | – |
| ATCTTAACCTGGAGAA (sugars k3 d10 k3, PS) | – | 28% | – |

| Sequence | target mRNA inhibition (MM.1R, 1 µM) | target mRNA inhibition (SK-MEL-28, 4 µM) | also measured |
| --- | --- | --- | --- |
| AGCCAGTGGCTGAAAC (sugars k3 d10 k3, PS) | – | 21% | – |
| CCAACTTATAGCACTC (sugars k3 d10 k3, PS) | 14% | – | – |
| AACACGGGAATTTCCA (sugars k3 d10 k3, PS) | – | 73% | – |
| GTCACCTGGCAACCAT (sugars k4 d8 k4, PS) | – | 41% | – |
| CCGGGTTCCTCCACCC (sugars k3 d10 k3, PS) | – | 9% | – |
| CAGTGATGTCAGGTTT (sugars kddddddddddkekek, PS) | 46% | – | – |
| CCAGAAGTACGAGCAC (sugars k3 d10 k3, PS) | -3% | – | – |
| GATTATATACTGGTTG (sugars kdddddddddkekeke, PS) | 12% | – | – |
| GTTCCTGTCACCTGGC (sugars k3 d10 k3, PS) | – | 49% | – |
| GTGAGATGCGGAGGTT (sugars k3 d10 k3, PS) | 39% | – | target mRNA inhibition (MM.1R, 0.0625 µM): 14%; target mRNA inhibition (MM.1R, 0.25 µM): 12%; target mRNA inhibition (MM.1R, 4 µM): 66% |
| GGACTAAGGACAGCTG (sugars k3 d10 k3, PS) | 13% | – | – |
| CCAGAACTAATGTCCC (sugars k3 d10 k3, PS) | 6% | – | – |
| GTAGTATGAGAAACGG (sugars k3 d9 k3 e1, PS) | 40% | – | – |
| GGGTAGAGCAGCTCCC (sugars k3 d10 k3, PS) | -16% | – | – |
| TTAAAGATGCCAGAGG (sugars k3 d10 k3, PS) | – | 28% | – |
| CTTATTATTTATGAGC (sugars k3 d10 k3, PS) | – | 37% | – |
| GTTAACAATATGCTTC (sugars k3 d10 k3, PS) | – | 25% | – |
| GAAAAGCAGCGAAAAG (sugars k3 d10 k3, PS) | – | 2% | – |
| ACTTTTAGAGAGGAGA (sugars kkkdddddddddkeke, PS) | 41% | – | – |
| CGCTTTCACTAAAGTC (sugars k3 d10 k3, PS) | – | 71% | – |
| ATTATATACTGGTTGG (sugars kkdddddddddkdkdk, PS) | 28% | – | – |
| GCACGGAGAGGGCGAG (sugars k3 d10 k3, PS) | 4% | – | – |
| GAAAGAATGGCGCATA (sugars k3 d10 k3, PS) | – | 49% | – |
| TAAGAAGCACTGGCAT (sugars k3 d10 k3, PS) | – | 26% | – |
